Experimental data from patent publication US20250345453A1, “CHEMOTHERAPEUTIC MICELLULAR NANOPARTICLES” (Peptinovo Biopharma Inc., priority 2024, published 2025).

Columns and labels:
SK-OV-3 cells = assay: Growth inhibition of SK-OV-3 cells, MTT assay after 72 hr; assay type: cell-based, human; conditions: conjugates delivered in C-m-HDLs, SEQ ID NO: 35 peptide, solvent lyophilization, FIG. 12A
Method: In this Example, the mole portions of components in the C-m-HDLs prepared by solvent lyophilization were POPC: egg SM: peptide: conjugate 5.6:2.4:2:1. 20 mM stock solutions of POPC and of egg SM were prepared in tert-butyl alcohol: water (8:2 v/v). […] Conjugates 20 and 30 were separately dissolved in tert-butyl alcohol: water (95:5) to a final concentration of 10 mM.
For C-m-HDL preparation, 2.8 mL of 20 mM POPC, 1.2 mL of 20 mM egg SM, 2 mL of 10 mM peptide, 1 mL of 10 mM conjugate, and 0.3 mL acetic acid were combined in a 20 mL glass vial. The combined solution was frozen at ≥−70° C. for ≥1 hr. The frozen vial was placed in the chamber of a lyophilizer set at a shelf temperature of −20° C. A vacuum between 100 to 150 mTorr was applied for ≥20 hr. The shelf temperature was raised to −10° C. and the vacuum was continued for ≥15 hr. The shelf temperature was then raised to 20° C. and the vacuum continued for 24 hr. The dried cake was dissolved in PBS to obtain C-m-HDLs. The uniformity of the C-m-HDLs was evaluated by SEC (Acclaim™ SEC-1000, 300 mm×4.6 mm column, 0.3 mL/min PBS mobile phase, 210 nm and 280 nm UV detection) and by dynamic light scattering. The phospholipid content was established with a commercially available, enzyme-based, colorimetric assay kit. Peptide and conjugate content were established by HPLC.
Two C-m-HDLs were prepared as above, containing either Conjugate 20 or Conjugate 30 were then tested for their growth inhibition activity against SK-OV-3 cells (ATCC). SK-OV-3 cells were grown in McCoy's-5A media supplemented with 10% fetal bovine serum and maintained in a 37° C. incubator under a 5% CO2 atmosphere. To assess growth inhibition, the growth medium of cells grown in 96-well plates was supplemented with various concentrations of C-m-HDL (cmpd 20), C-m-HDL (compd 30) or paclitaxel from a DMSO stock solution. The 96-well plates were incubated for 72 hr. The relative amount of live cells in each of the wells after 72 hr was determined with the MTT assay. […]

[1] = system: female Sprague-Dawley rats; assay: Adrenal gland functionality after dosing: plasma corticosterone after ACTH challenge; assay type: in vivo, rat; conditions: paclitaxel in Cremophor EL/ethanol, 4 mg/kg intraperitoneally Days 1, 4, 7; FIG. 10
Method: A paclitaxel stock solution was prepared by dissolving paclitaxel in 1:1 (v/v) Cremophor EL/ethanol (95%) to a final paclitaxel concentration of […] (C-E paclitaxel solution). Next, a paclitaxel solution suitable for dosing was prepared by combining one volume of the C-E paclitaxel solution with 3 volumes of 0.9 weight % NaCl. This solution is designated as “Control”.
C-m-HDL (cmpd 20) was prepared as per Example 12.
Eighteen (18) female Sprague-Dawley rats were randomly assigned to 3 groups of 6 animals each. All animals were lightly anesthetized using isoflurane and dosed intraperitoneally on Days 1, 4, and 7 with paclitaxel at 4 mg/kg in a dose volume of 1.5 mL/kg, or intravenously with C-m-HDL (cmpd 20) at 4 mg/kg or vehicle (saline) via the tail vein using a dose volume of 1.5 mL/kg. Group I received saline, Group 2 received paclitaxel, and Group 3 received C-m-HDL (cmpd 20). On Day 11, rats in each group were lightly anesthetized using isoflurane within their home cage to minimize potential stress responses. Blood (˜200 μL) was collected into K3EDTA tubes prior to ACTH challenge (baseline). Rats were then challenged with a single intraperitoneal injection of ACTH (ACTH 1-24, Sigma-Aldrich A0298-1922) in normal saline at […] in a dose volume of 2 mL/kg. […] Plasma corticosterone content was determined with a commercially available ELISA kit.

## CC(=O)O[C@H]1C(=O)[C@@]2(C)[C@H]([C@H](OC(=O)c3ccccc3)[C@]3(O)C[C@H](OC(=O)[C@H](OC(=O)Oc4cc(C)c5c(c4)CC[C@@](C)(CC/C=C(\C)CC/C=C(\C)CCC=C(C)C)O5)[C@@H](NC(=O)c4ccccc4)c4ccccc4)C(C)=C1C3(C)C)[C@]1(OC(C)=O)CO[C@@H]1C[C@@H]2O [Conjugate 20, paclitaxel-delta-tocotrienol conjugate]
SK-OV-3 cells
  SK-OV-3 growth inhibition activity, delta-tocotrienol versus delta-tocopherol anchor: equivalent results
SK-OV-3 cells; listed as paclitaxel-delta-tocotrienol
  SK-OV-3 growth inhibition activity, delta-tocotrienol versus delta-tocopherol anchor: essentially equivalent

## CC(=O)O[C@H]1C(=O)[C@@]2(C)[C@H]([C@H](OC(=O)c3ccccc3)[C@]3(O)C[C@H](OC(=O)[C@H](O)[C@@H](NC(=O)c4ccccc4)c4ccccc4)C(C)=C1C3(C)C)[C@]1(OC(C)=O)CO[C@@H]1C[C@@H]2O [paclitaxel]
[1]
  adrenal toxicity (plasma corticosterone after ACTH challenge): lack of adrenal toxicity

## Paclitaxel-δ-tocopherol conjugate with a cleavable carbonate bond [No. 82]
SK-OV-3 cells; listed as paclitaxel-delta-tocopherol
  SK-OV-3 growth inhibition activity, delta-tocotrienol versus delta-tocopherol anchor: essentially equivalent
SK-OV-3 cells; listed as δ-tocopherol-paclitaxel
  SK-OV-3 growth inhibition activity, delta-tocotrienol versus delta-tocopherol anchor: equivalent results
